The target in this assay is T1, β-secretase(BACE) (Homo sapiens, UniProt P56817).
T1 construct: purchased Panvera
The assay is described as follows: BACE FS1% Inhibition Assay. The format is biochemical. The conditions noted are these: FS1 substrate; for % Inhibition (FS) 0.3 μM / inhibition at 0.3 µM: 0.3 μM test compound; for % Inhibition (FS) 1 μM / inhibition at 1 µM: 1 μM test compound; for % Inhibition (FS) 3 μM / inhibition at 3 µM: 3 μM test compound; for inhibition at 0.3 µM: read-out: % Inhibition (FS) 0.3 μM; for inhibition at 1 µM: read-out: % Inhibition (FS) 1 μM; for inhibition at 3 µM: read-out: % Inhibition (FS) 3 μM. The procedure, abridged:
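Percent inhibition at each tested concentration, referenced to enzyme-free blank and vehicle-only positive control. Reaction: compound and BACE (4 μg/mL working stock) mixed 20 min at room temperature before FS1 substrate (300 μg/mL working stock), then 1 h at room temperature.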

Molecules are shown by their SMILES. Bounds are passed on as bounds.

T1 sequence (P56817 46-501): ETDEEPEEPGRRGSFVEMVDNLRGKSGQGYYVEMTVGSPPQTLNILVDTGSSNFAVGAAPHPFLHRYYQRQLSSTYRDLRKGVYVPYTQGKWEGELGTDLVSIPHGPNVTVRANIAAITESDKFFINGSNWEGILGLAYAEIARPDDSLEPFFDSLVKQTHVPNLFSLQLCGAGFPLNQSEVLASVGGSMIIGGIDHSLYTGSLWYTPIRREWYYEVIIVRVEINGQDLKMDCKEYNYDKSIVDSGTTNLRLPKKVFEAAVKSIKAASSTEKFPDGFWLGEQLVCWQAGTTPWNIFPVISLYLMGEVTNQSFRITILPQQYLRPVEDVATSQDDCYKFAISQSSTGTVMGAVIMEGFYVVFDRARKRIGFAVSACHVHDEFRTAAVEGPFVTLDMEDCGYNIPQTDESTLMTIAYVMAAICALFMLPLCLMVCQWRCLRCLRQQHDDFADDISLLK

As to `COc1cccc(COc2ccc3c(c2)CN(Cc2cccc(C(=O)N(C)C4CCCCC4)c2)C(N)=N3)c1` [Compound 514], the “% Inhibition (FS) 0.3 μM” value was <30%, the “% Inhibition (FS) 1 μM” value was <30% and the “% Inhibition (FS) 3 μM” value is <30%.

As to `CCCCCOc1ccc2c(c1)CN(Cc1cccc(C(=O)N(C)C3CCCCC3)c1)C(N)=N2` [Compound 516], the “% Inhibition (FS) 0.3 μM” value is given as <30%, the “% Inhibition (FS) 1 μM” value is recorded as <30% and the “% Inhibition (FS) 3 μM” value is reported as <30%.

For `CC(C)CCOc1ccc2c(c1)CN(Cc1cccc(C(=O)N(C)C3CCCCC3)c1)C(N)=N2` [Compound 517, 3-[2-Amino-6-(3-methyl-butoxy)-4H-quinazolin-3-ylmethyl]-N-cyclohexyl-N-methyl-benzamide], the inhibition at 0.3 µM was < 30%, the inhibition at 1 µM was < 30% and the inhibition at 3 µM came out at 40%.

Take `CC(C)COc1ccc2c(c1)CN(Cc1cccc(C(=O)N(C)C3CCCCC3)c1)C(N)=N2` [Compound 518]: the “% Inhibition (FS) 0.3 μM” value is on record as <30%, the “% Inhibition (FS) 1 μM” value was <30% and the “% Inhibition (FS) 3 μM” value was <30%.

With `CC(C)Oc1ccc2c(c1)CN(Cc1cccc(C(=O)N(C)C3CCCCC3)c1)C(N)=N2` [Compound 519], the “% Inhibition (FS) 0.3 μM” value is reported as <30%, the “% Inhibition (FS) 1 μM” value was <30% and the “% Inhibition (FS) 3 μM” value is given as <30%.

Consider `CN(C(=O)c1cccc(CN2Cc3cc(OC4CCCC4)ccc3N=C2N)c1)C1CCCCC1` [Compound 520], for which the “% Inhibition (FS) 0.3 μM” value was <30%, the “% Inhibition (FS) 1 μM” value is on record as <30% and the “% Inhibition (FS) 3 μM” value is given as 33%.

With `CN(C(=O)c1cccc(CN2Cc3cc(OCC4CCCC4)ccc3N=C2N)c1)C1CCCCC1` [Compound 521], the “% Inhibition (FS) 0.3 μM” value was <30%, the “% Inhibition (FS) 1 μM” value was <30% and the “% Inhibition (FS) 3 μM” value is reported as <30%.

On to `NC1=Nc2ccc(Oc3ccccc3)cc2CN1C1CCN(C(=O)C2CCCCC2)CC1` [Compound 522], for which the inhibition at 0.3 µM was < 30%, the inhibition at 1 µM was < 30% and the inhibition at 3 µM is 79%.

On to `CCCC(CCC)C(=O)N1CCC(N2Cc3cc(Oc4ccccc4)ccc3N=C2N)CC1` [Compound 523], for which the “% Inhibition (FS) 0.3 μM” value is given as <30%, the “% Inhibition (FS) 1 μM” value is <30% and the “% Inhibition (FS) 3 μM” value came to 58%.

For the compound `NC1=Nc2ccc(Oc3ccccc3)cc2CN1C1CCN(C(=O)C23CC4CC(CC(C4)C2)C3)CC1` [Compound 524], the “% Inhibition (FS) 0.3 μM” value is listed as <30%, the “% Inhibition (FS) 1 μM” value is reported as <30% and the “% Inhibition (FS) 3 μM” value came to 44%.

In the case of `NC1=Nc2ccc(Oc3ccccc3)cc2CN1CC1CCN(C(=O)C2CCCCC2)CC1` [Compound 525], the “% Inhibition (FS) 0.3 μM” value is given as <30%, the “% Inhibition (FS) 1 μM” value is listed as <30% and the “% Inhibition (FS) 3 μM” value was 70%.

In the case of `CCCC(CCC)C(=O)N1CCC(CN2Cc3cc(Oc4ccccc4)ccc3N=C2N)CC1` [Compound 526], the “% Inhibition (FS) 0.3 μM” value was <30%, the “% Inhibition (FS) 1 μM” value is given as 36% and the “% Inhibition (FS) 3 μM” value came to 98%.

In the case of `NC1=Nc2ccc(Oc3ccccc3)cc2CN1CC1CCN(C(=O)C23CC4CC(CC(C4)C2)C3)CC1` [Compound 527], the “% Inhibition (FS) 0.3 μM” value is recorded as <30%, the “% Inhibition (FS) 1 μM” value is listed as <30% and the “% Inhibition (FS) 3 μM” value amounted to 51%.

As for `CC(C)[C@@H](CNC(=O)C1CCCCC1)N1Cc2cc(Oc3ccccc3)ccc2N=C1N` [Compound 528], the “% Inhibition (FS) 0.3 μM” value is <30%, the “% Inhibition (FS) 1 μM” value is on record as <30% and the “% Inhibition (FS) 3 μM” value turned out to be 41%.

As for `NC1=Nc2ccc(Oc3c(F)cccc3F)cc2CN1CCC(=O)NC1C2CC3CC(C2)CC1C3` (stereo not drawn) [Compound 529], the “% Inhibition (FS) 0.3 μM” value is given as <30%, the “% Inhibition (FS) 1 μM” value is recorded as <30% and the “% Inhibition (FS) 3 μM” value is recorded as 66%.

In the case of `CC1CCN(C(=O)CCCC(CCC(=O)N2CCC(C)CC2)N2Cc3cc(Oc4ccccc4)ccc3N=C2N)CC1` (stereo not drawn) [Compound 532], the “% Inhibition (FS) 0.3 μM” value is listed as <30%, the “% Inhibition (FS) 1 μM” value is <30% and the “% Inhibition (FS) 3 μM” value is recorded as 68%.

In the case of `CS(=O)(=O)Nc1ccccc1-c1ccc2c(c1)CN(CCNC(=O)C1CCCCC1)C(N)=N2` [Compound 539], the “% Inhibition (FS) 0.3 μM” value is reported as <30%, the “% Inhibition (FS) 1 μM” value is listed as <30% and the “% Inhibition (FS) 3 μM” value is <30%.

For `CSc1ccccc1-c1ccc2c(c1)CN(CCNC(=O)C1CCCCC1)C(N)=N2` [Compound 540], the “% Inhibition (FS) 0.3 μM” value is listed as <30%, the “% Inhibition (FS) 1 μM” value was found to be 30% and the “% Inhibition (FS) 3 μM” value stood at 84%.

For `CC(=O)Nc1ccccc1-c1ccc2c(c1)CN(CCNC(=O)C1CCCCC1)C(N)=N2` [Compound 541], the “% Inhibition (FS) 0.3 μM” value was <30%, the “% Inhibition (FS) 1 μM” value is <30% and the “% Inhibition (FS) 3 μM” value was <30%.

Take `CC(C)(C)NS(=O)(=O)c1ccccc1-c1ccc2c(c1)CN(CCNC(=O)C1CCCCC1)C(N)=N2` [Compound 542]: the “% Inhibition (FS) 0.3 μM” value was <30%, the “% Inhibition (FS) 1 μM” value is on record as <30% and the “% Inhibition (FS) 3 μM” value is recorded as 73%.

As to `NC(=O)c1ccccc1-c1ccc2c(c1)CN(CCNC(=O)C1CCCCC1)C(N)=N2` [Compound 543], the “% Inhibition (FS) 0.3 μM” value is on record as <30%, the “% Inhibition (FS) 1 μM” value is listed as <30% and the “% Inhibition (FS) 3 μM” value is <30%.

With `NC1=Nc2ccc(-c3ccccc3-c3ccccc3)cc2CN1CCNC(=O)C1CCCCC1` [Compound 544], the “% Inhibition (FS) 0.3 μM” value is 32%, the “% Inhibition (FS) 1 μM” value is <30% and the “% Inhibition (FS) 3 μM” value is 51%.

In the case of `CN(C(=O)c1cccc(CN2Cc3cc([S+]([O-])c4ccccc4)ccc3N=C2N)c1)C1CCCCC1` (stereo not drawn) [Compound 549], the “% Inhibition (FS) 0.3 μM” value is reported as <30%, the “% Inhibition (FS) 1 μM” value is recorded as 30% and the “% Inhibition (FS) 3 μM” value was determined as 71%.

With `NC1=Nc2ccc(Oc3ccccc3)cc2CN1C1CCCCN(C(=O)C23CC4CC(CC(C4)C2)C3)C1` (stereo not drawn) [Compound 550], the “% Inhibition (FS) 0.3 μM” value was <30%, the “% Inhibition (FS) 1 μM” value is <30% and the “% Inhibition (FS) 3 μM” value came out at 67%.

On to `NC1=Nc2ccc(Oc3ccccc3)cc2CN1C1CCCCN(C(=O)C2CCCCC2)C1` (stereo not drawn) [Compound 551], for which the “% Inhibition (FS) 0.3 μM” value is on record as <30%, the “% Inhibition (FS) 1 μM” value is <30% and the “% Inhibition (FS) 3 μM” value was <30%.

Regarding `CCCC(CCC)C(=O)N1CCCCC(N2Cc3cc(Oc4ccccc4)ccc3N=C2N)C1` (stereo not drawn) [Compound 552], the “% Inhibition (FS) 0.3 μM” value is <30%, the “% Inhibition (FS) 1 μM” value is on record as <30% and the “% Inhibition (FS) 3 μM” value turned out to be 36%.

`CC(C)[C@@H](CNC(=O)C12CC3CC(CC(C3)C1)C2)N1Cc2cc(Oc3ccccc3)ccc2N=C1N` [Compound 553]: the “% Inhibition (FS) 0.3 μM” value is <30%, the “% Inhibition (FS) 1 μM” value is recorded as <30% and the “% Inhibition (FS) 3 μM” value was found to be 49%.

Turning to `CCCC(CNC(=O)C1CCCCC1)N1Cc2cc(Oc3ccccc3)ccc2N=C1N` (stereo not drawn) [Compound 554], the “% Inhibition (FS) 0.3 μM” value (0.3 µM) is <30%. Moreover, for the setting “1 µM”, the “% Inhibition (FS) 1 μM” value is on record as <30%. For the same compound, under “3 µM”, the “% Inhibition (FS) 3 μM” value is 42%.

Regarding `CCCC(CNC(=O)C12CC3CC(CC(C3)C1)C2)N1Cc2cc(Oc3ccccc3)ccc2N=C1N` (stereo not drawn) [Compound 555], under “0.3 µM”, the “% Inhibition (FS) 0.3 μM” value is recorded as <30%. The “% Inhibition (FS) 1 μM” value (1 µM) was <30%. For the same compound, the “% Inhibition (FS) 3 μM” value (3 µM) is given as 46%.

Turning to `CN(C(=O)CCC(CO)N1Cc2cc(Oc3ccccc3)ccc2N=C1N)C1CCCCC1` (stereo not drawn) [Compound 557], the “% Inhibition (FS) 0.3 μM” value is listed as <30%, the “% Inhibition (FS) 1 μM” value is on record as <30% and the “% Inhibition (FS) 3 μM” value is given as <30%.

In the case of `CN(C(=O)c1ncoc1C(Cc1ccccc1)N1Cc2cc(Oc3ccccc3)ccc2N=C1N)C1CCCCC1` (stereo not drawn) [Compound 559], the “% Inhibition (FS) 0.3 μM” value is <30%, the “% Inhibition (FS) 1 μM” value is given as <30% and the “% Inhibition (FS) 3 μM” value was <30%.

`CC(C)C(CNC(=O)C12CC3CC(CC(C3)C1)C2)N1Cc2cc(Oc3ccccc3)ccc2N=C1N` (stereo not drawn) [Compound 562]: the “% Inhibition (FS) 0.3 μM” value is 106%, the “% Inhibition (FS) 1 μM” value turned out to be 118% and the “% Inhibition (FS) 3 μM” value is given as 128%.

As to `N#Cc1cccc(C(=O)NCCN2Cc3cc(-c4cncnc4)ccc3N=C2N)c1` [Compound 567], the “% Inhibition (FS) 0.3 μM” value is listed as <30%, the “% Inhibition (FS) 1 μM” value was <30% and the “% Inhibition (FS) 3 μM” value was <30%.

As to `CCCC=Cc1ccc2c(c1)CN(CCNC(=O)c1cccc(C#N)c1)C(N)=N2` [Compound 568], the “% Inhibition (FS) 0.3 μM” value is given as <30%, the “% Inhibition (FS) 1 μM” value was <30% and the “% Inhibition (FS) 3 μM” value was <30%.

For the compound `CCCC(=O)NCCN1Cc2cc(-c3cncnc3)ccc2N=C1N` [Compound 569], the “% Inhibition (FS) 0.3 μM” value is recorded as <30%, the “% Inhibition (FS) 1 μM” value was <30% and the “% Inhibition (FS) 3 μM” value is listed as <30%.

`CCCC(=O)NCCN1Cc2cc(-c3ccncc3)ccc2N=C1N` [Compound 570]: the “% Inhibition (FS) 0.3 μM” value was <30%, the “% Inhibition (FS) 1 μM” value is given as <30% and the “% Inhibition (FS) 3 μM” value is listed as <30%.

Turning to `CCCC=Cc1ccc2c(c1)CN(CCNC(=O)CCC)C(N)=N2` [Compound 571], the “% Inhibition (FS) 0.3 μM” value is reported as <30%, the “% Inhibition (FS) 1 μM” value is recorded as <30% and the “% Inhibition (FS) 3 μM” value is recorded as <30%.

For `CC(C)(C)C(=O)NCCN1Cc2cc(-c3ccncc3)ccc2N=C1N` [Compound 573], the “% Inhibition (FS) 0.3 μM” value is on record as <30%, the “% Inhibition (FS) 1 μM” value is recorded as <30% and the “% Inhibition (FS) 3 μM” value is <30%.

For the origin of these results see patent publication US8383637B2, “2-amino-quinazoline derivatives useful as inhibitors of β-secretase (BACE)” (Jansssen Pharmaceutica N.V., priority 2004, dated 2013).
